Test results as given in patent publication US20230055713A1, “COMPOSITION FOR STRENGTHENING SKIN BARRIER OR MOISTURIZING SKIN COMPRISING TILIANIN” (COSMAX NBT, INC., priority 2021, published 2023).

Tests used:
Format in all cases: in vivo
[1] = test system: UVB-irradiated hairless mice; experiment: Skin moisture content (Corneometer) on the dorsal skin of UVB-irradiated hairless mice; conditions: T10 group: 10 mg/kg/week oral, 12 weeks
Protocol: (§1) Five-week-old female hairless mice (SKFI-1) were purchased from Orient Bio (Seongnam, Korea) as experimental animals. Diets of feed and water were freely given, and the animals were bred at the Yonsei Laboratory Animal Research Center (YLARC, Seoul, Korea) under conditions of 25° C. and 50 to 60% humidity for 12 hours. The hairless mice were randomly assigned to the following five groups: (i) a control group, (ii) a UVB-irradiated group (UVB), (iii) a UVB+100 mg/kg/day ARE-administered group (ARE100), (iv) a UVB+250 mg/Kg/day ARE-administered group (ARE250) and (v) UVB+10 mg/kg/week tilianin-administered group (T10). After one week of acclimatization, oral administrations of ARE and tilianin were performed daily for 12 weeks. […]
(§2) Before anesthetizing the hairless mice, the moisture content and the degree of transepidermal water loss (TEWL) were measured on the dorsal section of the hairless mice. Moisture content was measured using CORNEOMETER® 825 (CK Electronics GmbH) at a pressure of 1.1 to 1.5 N after contacting a probe to the skin surface. The TEWL which represents the amount of the evaporation of transepidermal water in the process of damage and recovery of a skin barrier was measured under conditions of 20 to 25° C. and 40 to 60% humidity using TEWAMETER® TM300 (CK Electronics GmbH) equipped with MULTI PROBE ADAPTER® MPA5 (CK Electronics GmbH).

[2] = test system: UVB-irradiated hairless mice; experiment: Transepidermal water loss (TEWL, Tewameter) on the dorsal skin of UVB-irradiated hairless mice; conditions: ARE 100/250 mg/kg/day or tilianin 10 mg/kg/week oral, 12 weeks, vs UVB group
Protocol: as §1, §2

hyaluronic acid = experiment: Hyaluronic acid concentration in skin homogenate (ELISA) of UVB-irradiated hairless mice; conditions: UVB+T10 group: 10 mg/kg/week oral, 12 weeks
Protocol: as §1, with “weeks. In this case, the hairless mice belonging to the CON group and the UVB groups were orally administered with saline instead of the samples.” for “weeks.”
Specifically, the skin tissues of the hairless mice of each group in Example 2-1 were homogenized with NP40 lysis buffer (Elpis Biotech, Daejeon, Korea). The concentration of hyaluronic acid in the homogenate was determined using the hyaluronic acid quantikine ELISA Kit (R&D Systems, Minneapolis, Minn., USA) according to the manufacturer's protocol. Absorbance was read at 450 nm using the VERSAMAX™ variable microplate reader (Molecular Devices, Inc., Sunnyvale, Calif., USA).

HAS1 = HAS1 mRNA expression in skin tissue (RT-PCR) of UVB-irradiated hairless mice; conditions: oral administration, 12 weeks, compared to the UVB-treated group
Protocol: as §1, with “weeks. In this case, the hairless mice belonging to the CON group and the UVB groups were orally administered with saline instead of the samples. The hairless mice of the remaining groups except the CON group were irradiated with UVB, and the UVB irradiation was carried out using UV crosslinker CL-1000M (UVP) toward the back 3 times per week.” for “weeks.”
(§3) Specifically, mRNA was isolated from the skin tissues of each group in Example 2-1 using RNAISO™ Plus (Takara). The mRNA was quantified using the NANODROP™ 1000 spectrophotometer (Thermo Fisher Scientific Inc.). […]

HAS2 = HAS2 mRNA expression in skin tissue (RT-PCR) of UVB-irradiated hairless mice; conditions: oral administration, 12 weeks, compared to the UVB-treated group
Protocol: as §1, with “weeks. In this case, the hairless mice belonging to the CON group and the UVB groups were orally administered with saline instead of the samples. The hairless mice of the remaining groups except the CON group were irradiated with UVB, and the UVB irradiation was carried out using UV crosslinker CL-1000M (UVP) toward the back 3 times per week.” for “weeks.”
as §3

HAS3 = HAS3 mRNA expression in skin tissue (RT-PCR) of UVB-irradiated hairless mice; conditions: oral administration, 12 weeks, compared to the UVB-treated group
Protocol: as §1, with “weeks. In this case, the hairless mice belonging to the CON group and the UVB groups were orally administered with saline instead of the samples. The hairless mice of the remaining groups except the CON group were irradiated with UVB, and the UVB irradiation was carried out using UV crosslinker CL-1000M (UVP) toward the back 3 times per week.” for “weeks.”
as §3

In the case of `COc1ccc(-c2cc(=O)c3c(O)cc(O[C@@H]4O[C@H](CO)[C@@H](O)[C@H](O)[C@H]4O)cc3o2)cc1` [tilianin], the “moisture content in the skin” value [1] is reported as “restored to normal levels”, the “TEWL (transepidermal water loss)” value [2] is reported as “decreased to a significant level” and the “content of hyaluronic acid, increase compared to the UVB-treated group” value (hyaluronic acid) is reported as 42.26%. The “mRNA expression level of HAS1” value (HAS1) was “significantly increased”, the “mRNA expression level of HAS2” value (HAS2) was “significantly increased” and the “mRNA expression level of HAS3” value (HAS3) was “significantly increased”.
